# From patent US11084795B2, “CFTR regulators and methods of use thereof” (The Regents of the University of California, priority 2015, dated 2021)
# Assays:
# [1] = tested on: Cl− secretion in mouse colon; test: Short-circuit current in freshly isolated mouse colon; details: read-out: EC50 for increase in short-circuit current in mouse colon
# Source text: Short-circuit current measurement.
# [2] = tested on: intestinal fluid secretion; test: Closed mid-jejunal loop model of intestinal fluid secretion; assay type: in vivo, mouse; details: 90 min
# Experimental: Mice (wildtype or CF) were given access to 5% dextrose water but not solid food for 24 h before experiments. Mice were anesthetized with isoflurane and body temperature was maintained during surgery at 36-38° C. using a heating pad. A small abdominal incision was made to expose the small intestine, and closed mid-jejunal loops (length 2-3 cm) were isolated by sutures. Loops were injected with 100 μL vehicle alone or 100 μg CFTRact-J027 in vehicle. The abdominal incision was closed with sutures, and mice were allowed to recover from anesthesia. Intestinal loops were removed at 90 min and loop length and weight were measured to quantify fluid secretion. Intestinal absorption was measured in CF mice (to prevent secretion) as described above, except that the loops were removed at 0 or 30 min. Absorption was calculated as 1−(loop weight at 0 min−loop weight at 30 min)/loop weight at 0 min.
# In vivo intestinal secretion and absorption. Mice (wildtype or CF) were given access to 5% dextrose water but not solid food for 24 h before experiments. […] Intestinal loops were removed at 90 min and loop length and weight were measured to quantify fluid secretion. Intestinal absorption was measured in CF mice (to prevent secretion) as described above, except that the loops were removed at 0 or 30 min. Absorption was calculated as 1−(loop weight at 0 min−loop weight at 30 min)/loop weight at 0 min. […]
# [3] = 7-day oral administration toxicity study in mice; assay type: in vivo, mouse
# Source text: Chronic administration and toxicity studies.
# scopolamine-treated mice = test: Scopolamine-induced mouse model of acute constipation; assay type: in vivo
# Experimental: Control mice were treated with vehicle only.
# [4] = tested on: enteroids generated from normal human duodenum and jejunum; test: Swelling measurements in human enteroids; assay type: cell-based; details: pretreatment 10 min, with 0.1 or 0.2 μM forskolin
# Experimental: Tissues from human subjects were obtained under approval of the Johns Hopkins University School of Medicine Institutional Review Board (protocol NA_00038329). Duodenal and jejunal biopsy specimens were obtained from adults during routine endoscopy at Johns Hopkins Hospital. Crypt isolation, enteroid propagation and culture were as described (16). For swelling measurements enteroids were seeded in 35-mm dishes with bottom coverglass with 1.5 mL media. On the day of the experiment the media was replaced with 3 mL Advanced DMEM/F12 and enteroids were incubated with 1 mM calcein greenacetoxymethyl ester for 1 h at 37° C. to label cytoplasm. Relative enteroid volume following addition of specified concentrations of forskolin was measured using a laser scanning confocal microscope (Fluoview FV10i-LIV; Olympus) at 37° C., 5% CO2, and 95% relative humidity. In some studies CFTRact-J027 was added 10 min prior to forskolin. Images were acquired every 10 min and analyzed with MetaMorph version 7.7 software (Olympus) to quantify enteroid areas.
# human wildtype CFTR = human wildtype CFTR (Homo sapiens, UniProt P13569); test: Patch-clamp (whole-cell and inside-out) in FRT cells expressing human wildtype CFTR; assay type: cell-based; design: expressed in transfected cells
# Source text: The pipette (intracellular) solution contained (in mM): 120 CsCl, 10 TEA-Cl, 0.5 EGTA, 1 MgCl2, 10 Cs-HEPES, 40 mannitol, 1 ATP (7.4). For inside-out patch-clamp experiments the pipette solution contained (in mM): 150 N-methyl-D-glucamine chloride (NMDG-Cl), 3 CaCl2, 2 MgCl2, 10 Na-Hepes (pH 7.3). […] Pipette electrical resistance for both whole-cell and inside-out experiments was 3-5 MΩ. The protocol for stimulation consisted of 600-ms voltage steps from −100 to +100 mV in 20 mV increments starting from a holding potential of −60 mV. The interval between steps was 4 s. Membrane currents were filtered at 1 kHz and digitized at 5 kHz. Data were analyzed using the Igor software (Wavemetrics, Portland, Oreg.) with custom software kindly provided by Dr. Oscar Moran.
# [5] = 10 mg/kg orally once per day, 7 days, mean
# Sequence of human wildtype CFTR (P13569 whole entry): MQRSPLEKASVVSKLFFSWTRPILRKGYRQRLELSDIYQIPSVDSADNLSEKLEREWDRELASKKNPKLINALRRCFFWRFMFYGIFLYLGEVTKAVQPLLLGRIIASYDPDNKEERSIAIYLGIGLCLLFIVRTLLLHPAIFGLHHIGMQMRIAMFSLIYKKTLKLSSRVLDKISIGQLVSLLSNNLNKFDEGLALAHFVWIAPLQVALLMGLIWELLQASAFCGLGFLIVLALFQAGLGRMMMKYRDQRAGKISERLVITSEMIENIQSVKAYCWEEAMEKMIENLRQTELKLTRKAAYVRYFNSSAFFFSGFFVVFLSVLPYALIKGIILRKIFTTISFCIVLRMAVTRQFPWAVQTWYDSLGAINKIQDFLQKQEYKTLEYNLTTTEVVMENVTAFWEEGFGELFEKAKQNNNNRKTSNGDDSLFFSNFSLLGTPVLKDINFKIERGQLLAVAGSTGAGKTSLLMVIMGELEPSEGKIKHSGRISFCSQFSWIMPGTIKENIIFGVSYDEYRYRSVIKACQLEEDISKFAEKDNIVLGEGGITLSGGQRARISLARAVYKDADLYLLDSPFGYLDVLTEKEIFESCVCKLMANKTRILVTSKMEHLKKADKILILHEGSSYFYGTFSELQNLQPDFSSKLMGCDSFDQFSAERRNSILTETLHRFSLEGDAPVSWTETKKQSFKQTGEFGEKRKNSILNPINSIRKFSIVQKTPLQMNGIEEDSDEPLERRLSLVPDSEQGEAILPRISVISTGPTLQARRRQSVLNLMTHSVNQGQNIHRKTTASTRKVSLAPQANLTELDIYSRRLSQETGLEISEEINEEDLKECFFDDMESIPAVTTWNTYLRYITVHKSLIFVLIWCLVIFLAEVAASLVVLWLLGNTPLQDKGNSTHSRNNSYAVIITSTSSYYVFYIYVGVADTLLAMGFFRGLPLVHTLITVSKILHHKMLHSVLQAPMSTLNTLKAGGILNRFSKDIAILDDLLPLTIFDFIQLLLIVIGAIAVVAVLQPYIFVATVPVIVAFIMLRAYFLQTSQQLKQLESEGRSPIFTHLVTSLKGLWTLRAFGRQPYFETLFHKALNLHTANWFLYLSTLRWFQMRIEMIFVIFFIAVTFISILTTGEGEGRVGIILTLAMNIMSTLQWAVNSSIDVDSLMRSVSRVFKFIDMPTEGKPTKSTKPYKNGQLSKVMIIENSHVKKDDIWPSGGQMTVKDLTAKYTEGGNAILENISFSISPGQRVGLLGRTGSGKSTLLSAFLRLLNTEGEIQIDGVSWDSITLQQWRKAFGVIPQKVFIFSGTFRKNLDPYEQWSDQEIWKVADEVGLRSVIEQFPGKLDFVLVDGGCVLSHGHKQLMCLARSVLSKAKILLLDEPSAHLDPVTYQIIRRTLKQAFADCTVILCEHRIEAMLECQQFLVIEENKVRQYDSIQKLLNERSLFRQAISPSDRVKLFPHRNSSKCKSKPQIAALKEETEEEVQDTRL
smiles,measurement,setting,value
"Nc1ccc([N+](=O)[O-])cc1-c1nc2ccccc2n(Cc2ccccc2)c1=O [CFTRact-J027, 3-(2-amino-5-nitrophenyl)-1-benzylquinoxalin-2(1H)-one]",EC50,[1],~300 nM
same,intestinal fluid accumulation compared to equal doses of lubiprostone or linaclotide,[2]; 100 μg per loop,Significantly greater intestinal fluid accumulation
same,loop fluid secretion in cystic fibrosis mice,[2]; cystic fibrosis mice,without effect
same,toxicity after chronic administration,[3]; 10 mg/kg oral,without apparent toxicity
same,ALP,[3]; [5],53 U/L
same,ALT,[3]; [5],44 U/L
same,AST,[3]; [5],105 U/L
same,Albumin,[3]; [5],2.9 g/dL
same,BUN,[3]; [5],18.4 mg/dL
same,Bicarbonate,[3]; [5],16 mmol/L
same,CK,[3]; [5],312 U/L
same,Calcium,[3]; [5],8.5 mg/dL
same,Chloride,[3]; [5],115 mmol/L
same,Cholesterol,[3]; [5],121 mg/dL
same,Creatinine,[3]; [5],0.2 mg/dL
same,Globulin,[3]; [5],2.2 g/dL
same,Glucose,[3]; [5],164 mg/dL
same,Hemoglobin,[3]; [5],12.8 g/dL
same,Leukocytes,[3]; [5],1.9 ± 10^3/μL
same,Phosphorus,[3]; [5],6.8 mg/dL
same,Potassium,[3]; [5],4.4 mmol/L
same,Sodium,[3]; [5],151 mmol/L
same,Thrombocytes,[3]; [5],900 ± 10^3/μL
same,Total bilirubin,[3]; [5],0.1 mg/dL
same,Total protein,[3]; [5],5.2 g/dL
same,lung water content,[3]; 7-day treated mice,normal lung water content
same,major serum chemistry and blood parameters,[3]; 7-day treated mice,did not affect the major serum chemistry and blood parameters
same,body weight and airway/lung fluid accumulation,"[3]; 7-day treated mice, 10 mg/kg oral",nor did it change body weight or produce airway/lung fluid accumulation
same,"efficacy, ip after development of constipation",scopolamine-treated mice; 10 mg/kg ip 1 h after loperamide or scopolamine,effective
same,"stool parameters, oral 1 h prior to scopolamine",scopolamine-treated mice; 10 mg/kg po,normalization of stool parameters
same,"efficacy, oral after development of constipation",scopolamine-treated mice; 10 mg/kg po 1 h after loperamide or scopolamine,not effective
same,"stool output, pellet number and water content compared to lubiprostone and linaclotide","scopolamine-treated mice; J027 10 mg/kg vs 0.5 mg/kg comparators, oral","more effective in increasing stool output, pellet number and water content"
same,enteroid swelling response as % of that produced by maximal (5 μM) forskolin,[4],approximately 50%
same,"increase of CFTR activity, whole-cell recording",human wildtype CFTR; 1 μM after 150 nM forskolin,more than four-fold
same,"CFTR activity, inside-out patch",human wildtype CFTR; 1 μM after submaximal ATP and catalytic subunit of PKA,strongly increased CFTR activity
